This note sets out measurements from the supplement of paper PMC8837787.

The experiment concerns Saccharomyces cerevisiae ABC16-Green Monster. The settings on record: 18 h; 30 °C; YPD. The method, then: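 Growth inhibition of the drug-sensitive S. cerevisiae ABC16-Green Monster strain (16 ABC transporters deleted) in YPD at 30 °C for 18 h. […] dilution series […] in biological replicates; IC50 from OD600 (18 h minus 0 h) fitted by variable-slope nonlinear regression in GraphPad Prism. Library compounds were first screened at 150 µM, and only those with at least 70% inhibition went to dose-response; the rest are marked inactive.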

Take `CCCCCN(C)CCC(O)(P(=O)([O-])O)P(=O)(O)O.[Na+]` [Ibandronate]: the IC50 growth inhibition was above 75 µM.

For `Cn1ccnc1CNCCS(=O)(=O)c1cccc(Nc2ccc(-c3cccc(F)c3)cn2)c1`, the IC50 growth inhibition turned out to be 50.5 µM.

`CC(C)(C)c1ccc2c(c1)CN(Cc1ccc(Cl)cc1)CO2` yielded an IC50 growth inhibition of 14.3 µM.

With `OC(CNCC1CCCO1)Cn1c2ccc(Cl)cc2c2cc(Cl)ccc21` (centres undefined), the IC50 growth inhibition was determined as 4.91 µM.

Molecule `Cc1ccc(Cc2c(C)nn(-c3nc4ccccc4[nH]3)c2O)cc1` [CBR868] returned an IC50 growth inhibition of 5.39 µM.

The molecule `OCCc1ccc(Nc2nccc(-c3nnc4ccccn34)n2)cc1` came in with an IC50 growth inhibition of 43.9 µM.

As for `CCC(C)n1ncn(-c2ccc(N3CCN(c4ccc(OCC5COC(Cn6cncn6)(c6ccc(Cl)cc6Cl)O5)cc4)CC3)cc2)c1=O` (centres undefined) [Itraconazole], the IC50 growth inhibition stood at 7.53 µM.

Regarding `COC(=O)c1ccc(C(=O)OC)c(N2C(=O)C=CC2=O)c1`, the IC50 growth inhibition is 67.7 µM.

For the molecule `COc1ccc(-c2nnc3ccc(-c4cccc(C(C)C)c4)cn23)cc1OC`, the IC50 growth inhibition stood at 52.3 µM.

Molecule `FC(F)(F)c1cccc(Nc2nc3ccccc3nc2Nc2cccc(C(F)(F)F)c2)c1` yielded an IC50 growth inhibition of 1.6 µM.

`O=C1Nc2ccc(F)cc2/C1=N/NC(=S)NC1CC2C=CC1C2` (centres undefined): the IC50 growth inhibition is 55.9 µM.

Molecule `O=C(Nc1ccc2c(c1)B(O)OC2)c1ccccc1C(F)(F)F` came in with an IC50 growth inhibition of 1.72 µM.

The molecule `N#C/C(=C\c1cn(Cc2ccccc2)nc1-c1cccnc1)c1nc2ccccc2[nH]1` showed an IC50 growth inhibition of 138 µM.

On to `CC(=O)Nc1cccc(-n2c(=O)n(C3CC3)c(=O)c3c(Nc4ccc(I)cc4F)n(C)c(=O)c(C)c32)c1` [Trametinib], for which the IC50 growth inhibition was above 75 µM.

In turn, `Nc1[nH]c(=O)ncc1F` [Flucytosine] gave an IC50 growth inhibition of 15.1 µM.

Consider `NC(=O)N1CCC(CC(=O)N2CCC([C@H]3c4ncc(Br)cc4CCc4cc(Cl)cc(Br)c43)CC2)CC1` [Lonarfanib], for which the IC50 growth inhibition came to 20.4 µM.

With `Cc1nc([P+](c2ccccc2)(c2ccccc2)c2ccccc2)c(N2CCCCC2)o1` [GNF-Pf-445], the IC50 growth inhibition is 9.44 µM.

`CNc1ncc2cc(-c3cc(NC(=O)NCCC(C)(C)C)c(F)cc3C)c(C)nc2n1` [DP-4978] returned an IC50 growth inhibition above 150 µM.

For the molecule `CN(C(=O)c1cc2c(-c3cncnc3)cccc2[nH]1)c1ccccc1`, the IC50 growth inhibition was 26.3 µM.

As to `Fc1ccc2[nH]c3c(N4CCN(C(c5ccccc5)c5ccccc5)CC4)ncnc3c2c1` [GNF-Pf-2775], the IC50 growth inhibition amounted to 0.723 µM.

The molecule `CCOc1ccc(Oc2ccc(S(=O)(=O)NC(C)c3ccncc3)cc2)cc1` (centres undefined) came in with an IC50 growth inhibition of 51.1 µM.

The molecule `CC1=NN(c2nc3ccccc3s2)C(=O)C1Cc1cccc2ccccc12` (centres undefined) showed an IC50 growth inhibition of 40.7 µM.

Take `CN(C)c1cc(NC(=O)Nc2ccccc2)c2ccccc2n1`: the IC50 growth inhibition amounted to 39.4 µM.

Turning to `Cc1ccc(CNc2ncnc3sccc23)cc1`, the IC50 growth inhibition amounted to 13.4 µM.

`CCC(=O)NC(c1ccccc1Cl)c1cc(Cl)c2cccnc2c1O` (centres undefined) [GNF-Pf-5038] showed an IC50 growth inhibition of 6.51 µM.

Molecule `FC(F)c1nc2ccccc2n1-c1nc(N2CCOCC2)nc(N2CCOCC2)n1` [ZSTK-474] had an IC50 growth inhibition of 52 µM.

`O=C(CCCCCCC(=O)Nc1ccccc1)NO` [Vorinostat]: the IC50 growth inhibition was above 75 µM.

As for `CC1CCC2C(C)C(=O)OC3OC4(C)CCC1C32OO4` (centres undefined) [Artemisinin], the IC50 growth inhibition turned out to be 34.3 µM.

`CC(C)/N=c1\cc2n(-c3ccc(Cl)cc3)c3ccccc3nc-2cc1Nc1ccc(Cl)cc1` [Clofazimine]: the IC50 growth inhibition was found to be 5.81 µM.

Regarding `CC(=O)N(C1=C(N2CCOCC2)C(=O)c2ccccc2C1=O)c1ccc(I)cc1` [GNF-Pf-3703], the IC50 growth inhibition worked out at 7.31 µM.

In the case of `CCN(CC)CCCC(C)Nc1ccnc2cc(Cl)ccc12` (centres undefined) [Chloroquine], the IC50 growth inhibition was above 75 µM.

Turning to `CC(Oc1ccc(Cl)cc1Cl)c1nc(-c2ccc(NC(=O)c3ccco3)cc2)no1` (centres undefined) [GNF-Pf-3333], the IC50 growth inhibition was found to be 2.8 µM.

Take `COC1=C2CC(C)CC(OC)C(O)C(C)C=C(C)C(OC(N)=O)C(OC)C=CC=C(C)C(=O)NC(=CC1=O)C2=O` (centres undefined) [Geldanamycin]: the IC50 growth inhibition is above 75 µM.

In turn, `COc1ccccc1N=C1C(=O)c2ccccc2C(O)=C1N1CCCCC1` had an IC50 growth inhibition of 7.84 µM.

In the case of `Nc1ccn(C2OC(CO)C(O)C2(F)F)c(=O)n1` (centres undefined) [Gemcitabine], the IC50 growth inhibition was above 75 µM.

As for `Cc1cc(Cl)ccc1OCc1nnc(-c2ccccn2)[nH]1`, the IC50 growth inhibition came to 20.7 µM.

In turn, `CC(=O)N(C1=C(N2CCOCC2)C(=O)c2ccccc2C1=O)c1cccc(Cl)c1` [GNF-Pf-2288] yielded an IC50 growth inhibition of 41.7 µM.

As to `Cc1nn(C)cc1C(C)Nc1nncc(-c2ccc(C(F)(F)F)cc2)n1` (centres undefined), the IC50 growth inhibition turned out to be 44.9 µM.

Molecule `CCCCN(CCCC)CC(O)c1cc(Cl)cc2c1-c1ccc(Cl)cc1C2=Cc1ccc(Cl)cc1` (centres undefined) [Lumefantrine] yielded an IC50 growth inhibition above 75 µM.

`c1csc(-c2cnc3sc(NCC4CCOCC4)nn23)c1` displayed an IC50 growth inhibition of 2.98 µM.

Take `CC(Oc1ccc(Cl)cc1Cl)c1nc(-c2ccc(NC(=O)c3cccs3)cc2)no1` (centres undefined) [GNF-Pf-2823]: the IC50 growth inhibition worked out at 3.9 µM.

For `CC(C(=O)O)c1ccc2c(c1)[nH]c1ccc(Cl)cc12` (centres undefined) [Carprofen], the IC50 growth inhibition was above 75 µM.

On to `c1ccc(-c2cc(N3CCCCC3)c3ccccc3n2)nc1`, for which the IC50 growth inhibition was 42.9 µM.

`Cc1[nH]c2ccccc2c1C(c1cccs1)N1CCN(C)CC1` (centres undefined) displayed an IC50 growth inhibition of 35.9 µM.

On to `OCCNc1nc(Nc2ccc(Cl)c(Cl)c2)nc2ccccc12`, for which the IC50 growth inhibition is 14 µM.

With `COc1ccc(Cn2cnc3c(-c4ccco4)nc(Cl)nc32)cc1`, the IC50 growth inhibition was found to be 51.6 µM.

For `CSc1ccccc1C(=O)Nc1nc(-c2ccccn2)cs1`, the IC50 growth inhibition came to 10.8 µM.

`COc1cc(C2c3cc4c(cc3C(OC3OC5COC(C)OC5C(O)C3O)C3COC(=O)C23)OCO4)cc(OC)c1O` (centres undefined) [Etoposide] came in with an IC50 growth inhibition of 23.6 µM.

For the molecule `CCCCCc1nnc(NC(=O)c2nccnc2N)s1`, the IC50 growth inhibition is 74.2 µM.

`Cc1nc2ncnn2c(N2CCc3ccccc3C2)c1Cl` came in with an IC50 growth inhibition of 84.8 µM.

Molecule `O=C1C2=C(Nc3ccccc3SC2c2ccc(OCc3ccccc3)cc2)c2ccccc21` (centres undefined) [GNF-PF-5338] yielded an IC50 growth inhibition above 150 µM.

For the molecule `CCCCCCC(O)(c1ccc(F)cc1)C(CN1CCOCC1)c1ccccc1` (centres undefined), the IC50 growth inhibition amounted to 17.3 µM.

For `C[C@]1(O)C[C@@H](c2nc(-c3ccc4ccc(-c5ccccc5)nc4c3)c3c(N)nccn32)C1` [Linsitinib], the IC50 growth inhibition stood at 16 µM.

For `CC1CCC2C(C)C(O)OC3OC4(C)CCC1C32OO4` (centres undefined) [Dihydroartemisinin], the IC50 growth inhibition is above 75 µM.

For `c1ccc(Oc2ccc(-c3cc(C4CCOCC4)[nH]n3)cc2)cc1`, the IC50 growth inhibition stood at 55.6 µM.

As to `COC1C(OC(N)=O)C(O)C(Oc2ccc3c(O)c(NC(=O)c4ccc(O)c(CC=C(C)C)c4)c(=O)oc3c2C)OC1(C)C` (centres undefined) [Novobiocin], the IC50 growth inhibition is above 75 µM.

In turn, `CC1=NN(c2nc3ccccc3[nH]2)C(=O)C1Cc1ccccc1` (centres undefined) [CBR110] yielded an IC50 growth inhibition of 3.48 µM.

Molecule `O=C1C=CC(=O)N1c1ccc(C2CCCCC2)cc1` returned an IC50 growth inhibition of 1.69 µM.

In turn, `Cn1ncc2c(NCc3ccc(-c4ccc(Cl)cc4)o3)ncnc21` showed an IC50 growth inhibition of 61.9 µM.

As for `O[C@@H](c1cc(C(F)(F)F)nc2c(C(F)(F)F)cccc12)[C@H]1CCCCN1`, the IC50 growth inhibition was determined as 45.6 µM.

Molecule `CCOC(=O)C1=C(C)NC(C)=C(C(=O)OC)C1c1cccc(Cl)c1Cl` (centres undefined) [Felodipine] yielded an IC50 growth inhibition of 20.7 µM.

As to `CC(=O)NCC1CN(c2ccc(N3CCSCC3)c(F)c2)C(=O)O1` (centres undefined) [Sutezolid], the IC50 growth inhibition is above 75 µM.

`CC1(COc2ccc(N3CCC(Oc4ccc(OC(F)(F)F)cc4)CC3)cc2)Cn2cc([N+](=O)[O-])nc2O1` (centres undefined) [Delamanid] showed an IC50 growth inhibition above 75 µM.

`COc1ccc(Nc2nc(Nc3ccc(C)cc3)nc(Sc3nc4ccccc4[nH]3)n2)cc1` [CBR499] came in with an IC50 growth inhibition of 2.31 µM.

The molecule `O=c1c2ccccc2[nH]c2ccc(I)cc12` [GNF-Pf-4577] showed an IC50 growth inhibition above 150 µM.

In the case of `COc1ccc(CN2CCN(C(c3ccc(F)cc3)c3ccc(F)cc3)CC2)c(OC)c1OC` [Lomerizine], the IC50 growth inhibition was 14.2 µM.

Regarding `CCC(=C(c1ccc(O)cc1)c1ccc(OCCNC)cc1)c1ccccc1` [Endoxifen], the IC50 growth inhibition worked out at 8.3 µM.

The molecule `CC(C)Sc1cccc(C(=O)Nc2nnc(-c3ccnn3C(C)C)o2)c1` [CBR113] registered an IC50 growth inhibition of 2.48 µM.

Molecule `Cc1cc(Nc2cccc(F)c2)nc(NCc2ccccc2)n1` registered an IC50 growth inhibition of 21.9 µM.

With `O=C1c2ccccc2C2=Nc3ccccc3SC(c3cccc(F)c3)C12` (centres undefined), the IC50 growth inhibition stood at 1.68 µM.

Consider `Nc1nc(F)nc2c1ncn2C1OC(CO)C(O)C1O` (centres undefined) [Fludarabine], for which the IC50 growth inhibition was above 75 µM.

`C=CCn1c(C)cc(C(=O)CSc2nc3ccccc3o2)c1C`: the IC50 growth inhibition came to 11.2 µM.

Molecule `CC(C)c1csc(NC(=O)c2cnn(-c3ccccc3F)c2C(F)(F)F)n1` displayed an IC50 growth inhibition of 31.3 µM.

In the case of `Brc1cncc(-c2cc(NCCCn3ccnc3)nc(-c3ccccc3)n2)c1`, the IC50 growth inhibition was determined as 23.9 µM.
